The values that follow come from patent publication US7863465B2, “Antifungal agents” (Merck Sharp & Dohme Corp., priority 2006, dated 2011).

pIC50: −log10 of the molar value.

T1 sequence (O13428 1-1897): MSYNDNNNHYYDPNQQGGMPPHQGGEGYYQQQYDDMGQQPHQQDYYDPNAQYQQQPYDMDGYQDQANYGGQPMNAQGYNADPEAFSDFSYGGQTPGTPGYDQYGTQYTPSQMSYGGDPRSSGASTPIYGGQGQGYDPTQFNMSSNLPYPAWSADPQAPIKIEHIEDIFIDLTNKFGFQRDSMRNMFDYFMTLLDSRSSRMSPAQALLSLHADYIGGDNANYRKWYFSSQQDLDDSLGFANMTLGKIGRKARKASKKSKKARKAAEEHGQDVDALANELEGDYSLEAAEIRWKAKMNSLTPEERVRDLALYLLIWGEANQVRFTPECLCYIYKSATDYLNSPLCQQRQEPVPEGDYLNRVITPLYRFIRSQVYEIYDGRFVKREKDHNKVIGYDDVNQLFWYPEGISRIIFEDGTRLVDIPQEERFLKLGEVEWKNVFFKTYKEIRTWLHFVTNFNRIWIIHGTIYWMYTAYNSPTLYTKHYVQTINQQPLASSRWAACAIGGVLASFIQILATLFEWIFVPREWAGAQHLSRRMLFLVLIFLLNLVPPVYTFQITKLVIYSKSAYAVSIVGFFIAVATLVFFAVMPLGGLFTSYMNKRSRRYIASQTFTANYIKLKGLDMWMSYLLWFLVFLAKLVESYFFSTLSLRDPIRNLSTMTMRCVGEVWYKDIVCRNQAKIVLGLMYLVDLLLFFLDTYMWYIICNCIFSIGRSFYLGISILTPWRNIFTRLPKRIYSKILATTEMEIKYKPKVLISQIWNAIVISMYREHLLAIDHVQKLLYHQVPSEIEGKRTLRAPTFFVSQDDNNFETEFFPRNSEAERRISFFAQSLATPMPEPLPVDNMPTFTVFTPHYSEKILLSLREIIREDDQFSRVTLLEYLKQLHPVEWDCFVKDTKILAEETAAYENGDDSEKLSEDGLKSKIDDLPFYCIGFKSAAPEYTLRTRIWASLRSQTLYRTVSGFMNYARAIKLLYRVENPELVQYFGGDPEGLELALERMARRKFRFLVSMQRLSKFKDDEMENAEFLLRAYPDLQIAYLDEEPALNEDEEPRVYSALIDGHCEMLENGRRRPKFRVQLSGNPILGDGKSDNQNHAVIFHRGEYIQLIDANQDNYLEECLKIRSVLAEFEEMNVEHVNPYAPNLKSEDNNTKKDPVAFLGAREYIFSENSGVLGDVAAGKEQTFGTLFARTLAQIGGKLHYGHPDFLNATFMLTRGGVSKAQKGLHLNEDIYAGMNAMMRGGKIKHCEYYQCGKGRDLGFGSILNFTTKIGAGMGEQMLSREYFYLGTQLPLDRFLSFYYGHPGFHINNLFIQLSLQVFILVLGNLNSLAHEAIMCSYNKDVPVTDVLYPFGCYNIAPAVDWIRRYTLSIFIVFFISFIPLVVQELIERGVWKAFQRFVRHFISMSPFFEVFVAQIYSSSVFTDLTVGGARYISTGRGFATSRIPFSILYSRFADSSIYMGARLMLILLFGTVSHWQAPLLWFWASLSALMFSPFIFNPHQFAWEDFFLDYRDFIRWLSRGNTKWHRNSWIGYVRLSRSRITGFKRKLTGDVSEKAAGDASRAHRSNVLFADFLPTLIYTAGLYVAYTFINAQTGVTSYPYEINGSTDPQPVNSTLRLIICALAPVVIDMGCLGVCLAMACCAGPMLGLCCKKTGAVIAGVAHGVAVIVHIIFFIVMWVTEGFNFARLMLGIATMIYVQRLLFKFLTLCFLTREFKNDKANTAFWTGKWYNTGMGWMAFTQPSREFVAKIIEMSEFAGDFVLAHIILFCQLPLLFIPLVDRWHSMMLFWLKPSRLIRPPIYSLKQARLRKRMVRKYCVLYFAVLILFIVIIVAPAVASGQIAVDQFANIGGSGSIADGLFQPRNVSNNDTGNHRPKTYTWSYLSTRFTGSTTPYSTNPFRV
T1 sequence (O42825 whole entry partner): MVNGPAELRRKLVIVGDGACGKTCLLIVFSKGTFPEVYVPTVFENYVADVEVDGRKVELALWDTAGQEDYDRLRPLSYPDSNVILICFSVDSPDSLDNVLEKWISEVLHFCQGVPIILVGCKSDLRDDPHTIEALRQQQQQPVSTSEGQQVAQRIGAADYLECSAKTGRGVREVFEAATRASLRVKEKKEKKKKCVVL

This test addresses T1, glucan synthase (GS) prepared from Candida albicans MY1055 (Candida albicans, UniProt O13428).
T1 construct: Extraction of GS activity from membranes was performed at a protein concentration of 5 mg/mL in extraction buffer; endogenous in cells; host or cells: Candida albicans MY1055 (membranes, detergent extract, product entrapment)
The experiment in a line: Glucan synthase inhibition (polymerization assay, 96-well, 3H-UDPG incorporation). Type of test: biochemical. To be noted: glucan synthase from C. albicans MY1055. The protocol: The in vitro evaluation of glucan synthase inhibitory activity of compounds was measured in a polymerization assay in 96-well format. Each well contained 100 μL of ^3H-UDPG at 0.5 mM (6000 to 8000 dpm/nmol), 50 mM HEPES pH 7.5 (Sigma), 10% w/v glycerol (Sigma), 1.5 mg/mL bovine serum albumin (Sigma A 9647. Lot 44H0190), 25 mM KF (Fisher), 1 mM EDTA (Gibco Ultrapure), 25 μM GTP-γ-S, enzyme sufficient to give 3 to 6 nmoles incorporation during the 60 min incubation at 22° C., and test compound added from wells in 3-fold serial dilutions in 100% DMSO (1 μL/well). The reaction was stopped by the addition of 100 μL of 20% trichloroacetic acid. Plates were chilled for a minimum of 10 min, and precipitated glucan collected by filtration on GF/C plates (Packard Unifilter®-96), washed with 5 cycles of water (about 1 mL/well each cycle) using a Packard Filtermate Harvester. 40 μL/well scintillation fluid (Packard Ultima Gold TM-XR) was added and the sealed plates counted in a Wallac Beta counter in top-counting mode at an efficiency of approximately 40%.
Stock solutions were stored at 10 mg/mL in DMSO at −20° C. For each new enzyme preparation, the initial titration performed started at 1 mg/mL, which was prepared by making a 10-fold dilution in DMSO (5 μL to 50 μL). 40 μL of this stock was placed in column 12 of a round-bottomed 96-well microtiter plate. 40 μL DMSO was added to columns 1 to 11 in the same row and ten 3-fold serial dilutions performed, by transferring 20 μL from column 12 to column 11 etc., with 4 mixings before each transfer. No test compound was transferred to from column 2 to column 1. Duplicate aliquots of 1 μL of all 12 dilutions were then transferred to the side walls of a 96-well Bioblock 1.1 mL plate (Fisherbrand) to create two rows.
The results were tabulated and a standard plate background was subtracted and the net count transpose-pasted into a Prism file, with final compound concentrations used in ng/mL. Graphs were created in Prism software, using the average of two determinations, and using Prism's curve fitting program (sigmoidal dose response non-linear regression).
Routine analysis was performed with glucan synthase (GS) prepared from Candida albicans MY1055 by the following procedure: MY1055 was grown in 10 liters YPD medium (10 g yeast extract, 20 g tryptone, 20 g glucose per liter) with vigorous shaking at 30° C., to early stationary phase. Cells were harvested by centrifugation, the pellet was washed and frozen at −70° C. until breakage. Thawed pellets were shaken with an equal volume of breakage buffer (50 mM HEPES pH 7.4, 10% glycerol, 1 mM EDTA, 1 mM PMSF, 1 mM DTT) and 4 times their weight of 0.5 mm acid washed glass beads for 2 hours at 4° C. Extent of breakage was assessed visually at 40× magnification. For C. parapsilosis strains, shaking was extended to 3 hours to maximize breakage. After low speed centrifugation to remove cell debris, the supernatant was centrifuged at 100,000×g for 60 min. to separate membranes plus ribosomes from cytoplasmic components. Membranes were further washed two additional times with breakage buffer using the same centrifugation conditions and finally suspended in breakage buffer at 25 to 30 mg/mL protein (Biorad) for storage at −70° C. Extraction of GS activity from membranes was performed at a protein concentration of 5 mg/mL in extraction buffer (50 mM NaPO4 pH 7.5, 0.1 M KCl, 0.1M Na citrate, 20% glycerol, 5 μM GTP-γ-S, 1 mM DTT, 1 mM PMSF, 3 μg/mL pepstatin) plus 0.25% W1 by gentle mixing at 4° C. for 60 min, followed by centrifugation at 100,000×g for 60 min. After centrifugation, clear supernatant was removed from a pellet consisting of a hard layer usually with small amounts of gelatinous unextracted membranes above it. […]
`CC(=O)O[C@@H]1C[C@@]23COC[C@](C)([C@@H]2CC[C@H]2C3=CC[C@@]3(C)[C@H](C(=O)O)[C@@](C)([C@H](C)C(C)C)CC[C@]23C)[C@H]1OCCN` [Example 1, (1S,2R,3R,4aR,6aS,7R,8R,10aR,10bR,12aR)-3-(acetyloxy)-2-(2-aminoethoxy)-8-[(1R)-1,2-dimethylpropyl]-1,6a,8,10a-tetramethyl-1,3,4,6,6a,7,8,9,10,10a,10b,11,12,12a-tetradecahydro-2H-1,4a-(methanooxymethano)chrysene-7-carboxylic acid] showed a pIC50 of 7.09. The result for `CC(=O)O[C@@H]1C[C@@]23COC[C@@](C)([C@@H]2CC[C@H]2C3=CC(=O)[C@@]3(C)[C@H](C(=O)O)[C@@](C)([C@H](C)C(C)C)CC[C@]23C)[C@H]1OCC(C)(C)N(C)C` [Example 114, (1S,2R,3R,4aR,6aS,7R,8R,10aR,10bR,12aR)-3-(acetyloxy)-2-(2-diamino-2-methylpropoxy)-8-[(1R)-1,2-dimethylpropyl]-1,6a,8,10a-tetramethyl-6-oxo-1,3,4,6,6a,7,8,9,10,10a,10b,11,12,12a-tetradecahydro-2H-1,4a-(methanooxymethano)chrysene-7-carboxylic acid] reads 7.09. The figure for `CN[C@](C)(CO[C@H]1[C@H](OC(C)=O)C[C@@]23COC[C@@]1(C)[C@@H]2CC[C@H]1C3=CC(=O)[C@@]2(C)[C@H](C(=O)O)[C@@](C)([C@H](C)C(C)C)CC[C@]12C)C(C)C` [Example 149, (1S,2R,3R,4aR,6aS,7R,8R,10aR,10bR,12aR)-3-(acetyloxy)-2-[(2S)-2-methylamino-2,3-dimethylbutyloxy]-8-[(1R)-1,2-dimethylpropyl]-1,6a,8,10a-tetramethyl-6-oxo-1,3,4,6,6a,7,8,9,10,10a,10b,11,12,12a-tetradecahydro-2H-1,4a-(methanooxymethano)chrysene-7-carboxylic acid] is 7.70. The figure for `CC(=O)O[C@@H]1C[C@@]23COC[C@@](C)([C@@H]2CC[C@H]2C3=CC[C@@]3(C)[C@H](C(=O)O)[C@@](C)([C@H](C)C(C)C)CC[C@]23C)[C@H]1OCCCN` [Example 35, (1S,2R,3R,4aR,6aS,7R,8R,10aR,10bR,12aR)-3-(acetyloxy)-2-(3-aminopropoxy)-8-[(1R)-1,2-dimethylpropyl]-1,6a,8,10a-tetramethyl-1,3,4,6,6a,7,8,9,10,10a,10b,11,12,12a-tetradecahydro-2H-1,4a-(methanooxymethano)chrysene-7-carboxylic acid] is 7.32.
